The test system of assay [1] is keratinocyte-melanocyte co-cultures (Human HaCaT keratinocytes, human primary melanocytes). The assay can be described thus: Induced pigmentation in keratinocyte-melanocyte co-cultures, DOPA staining and computerized image analysis. The following applies: three daily treatments; for Mean area: DOPA stain, relative pigmented area; for % increase: versus control. Type of assay: cell-based. As to the method:
The peptide Peptide 1 and various pigments were tested, alone or in combination, with keratinocyte-melanocyte cultures for their effect on cell pigmentation, using DOPA staining and computerized image analysis. The pigments that were tested were copper chloride from Sigma (St. Louis, Mo.) and the water-soluble melanin derivative Melasyn-100™ from San-mar laboratories, Inc. (Elmsford, N.Y.). The pigments were tested at concentrations ranging from 0.0001% (W/V) to 0.1% (W/V) and peptides were tested at 50 μM.
The assay was conducted in the following manner. Human HaCaT keratinocytes (Boukamp P., et al., J Cell Biol 106, 3, 761-771 (1988)) were maintained in Dulbecco's Modified Eagle's Medium (DMEM) containing 10% fetal bovine serum (FBS), 4.5 mg/ml glucose, 2 mM L-glutamine, 50 U/ml penicillin and 50 μg/ml streptomycin (Life Technologies, Gaithersburg, Md.). Cells were maintained at <80% confluency in 5% CO2 (v/v) and were used in experimental procedures up to culture passage 15. Human primary melanocytes (Clonetics, San Diego, Calif. or Cascade Biologics, Portland, Oreg.) were maintained according to manufacturer's instructions. To establish keratinocyte-melanocyte co-cultures, 6×10^4 melanocytes were plated in each well of a 24 well plate and maintained according to manufacturer's instructions.
Melanocytes were rinsed three times with melanocyte growth media without PMA and keratinocytes (6×10^4) were plated to establish the co-cultures in this media. Co-cultures were treated for three days with test peptides and pigments, and assayed for cell viability and pigment level on the forth day. Cell viability was assayed using alamarBlue™ (Acumed International, West Lake, Ohio) following manufacturer's instructions. No change in viability was observed following three daily treatments with all tested material. All in vitro experiments were performed in triplicates, and were repeated at least three times.
Following three daily treatments, the co-cultures were briefly fixed (10% buffered formalin from Fisher Scientific, 15 minutes), washed three times with Phosphate-buffered saline (PBS, from Life Technologies) and stained with L-3,4-Dihydroxyphenylalanine (DOPA, from Sigma, St. Louis, Mo.) 0.1% in PBS, for 5 hours at 37° C., followed by two PBS washes and formalin (10%, overnight) fixation. DOPA is a substrate for tyrosinase, therefore an increase in staining represents increased tyrosinase activity and pigment production. DOPA-stained monolayers were used for image analysis. All images were obtained and analyzed with Image Pro Plus 3.0 software (Media Cybernetics, Silver Spring, Md.). Parameters measured were surface area of stained material within melanocyte and keratinocytes and the total surface area of the cells in the culture, and the relative pigmented area was calculated. A value of 100% was assigned to untreated controls, and values of treatment groups were normalized to their relevant controls. In all experiments there was no difference between PBS-treated cells and untreated controls. Data are presented with standard deviation (SigmaPlot® 5.0, SPSS Science, Chicago, Ill.).
Forskolin (Sigma, St. Louis, Mo.), a known inducer of pigmentation, served as a positive control and a reference point. Forskolin was administered at 1% (W/V).

Assay [2] concerns Dark skinned Yucatan microswine. The assay can be described thus: Induced pigmentation in vivo, F&M-stained skin sections of topically treated swine. Details: key: −1: Slight lightening; 0: No change; 1: Minimal increase in pigment deposition; 2: Increased pigment deposition; 3: Strong increase in pigment deposition, some increase in caps; 4: Strong increase in pigment deposition, strong increase in caps. The following applies: topical, twice a day, five days/week, eight or nine weeks; average of all sites of responsive swine; positive controls 1% (W/V), peptides 250 or 500 μM, pigments 1% or 5% (W/V). How it is done: Compositions of the present invention were tested for their ability to induce in vivo pigmentation in skin cells in the following experiment. Dark skinned Yucatan microswine (Charles River, Portland, Me.) were housed in appropriately sized cages in an environmentally controlled room with a 12-hour light-12-hour dark photoperiod and supplied with food and water ad libitum. Animal care was based on the “Guide for the Care and Use of Laboratory Animals”, NIH Publication No. 85-23. Twenty μl of test peptides were applied topically, twice a day, five days/week, for eight or nine weeks, on the dorsum of the swine. Treatments of individual swine were always arranged in a head to tail order on one side, and in a tail to head order on the other side of the animal. Biopsies were taken using standard techniques.
Sections from the skin biopsies were stained with Hematoxylin and Eosin (H&E), or with Fontana-Mason (F&M), using standard procedures (Sheenan DC, Hrapckak BB, eds., Theory and Practice of Histo-technology. p. 223, 277, The C. V. Mosby Co., St. Louis (1980)). F&M staining identifies silver nitrate reducing molecules. In skin, this non-specific stain identifies primarily melanin. At least three sections per biopsy were processed. […]
F&M-stained histological skin sections were evaluated for the change in pigment deposition within the treated site. […]

The values below come from patent US20020197219A1, “Composition containing a peptide and a pigment and the use thereof in darkening the skin” (priority 2001, published 2002).

`[Cl][Cu][Cl]` [CuCl2, copper chloride]: in assay [1] (0.001% (W/V)), the Mean area stood at 0.173 and the “% increase” value was found to be 120%. Besides, in assay [1] (0.1% (W/V)), the Mean area turned out to be 0.246 and the “% increase” value came to 212%.
For the compound `C=C[C@@]1(C)CC(=O)[C@]2(O)[C@@]3(C)[C@@H](O)CCC(C)(C)[C@@H]3[C@H](O)[C@H](OC(C)=O)[C@@]2(C)O1` [Forskolin], the “Score (change in pigment deposition)” value in assay [2] is recorded as 1.
As for “H2-Val-Gly-Val-Ala-Pro-Gly-NH2 (H-VGVAPG-NH2) [Peptide 1]”, the “Score (change in pigment deposition)” value in assay [2] was 1. In addition, in assay [1] (50 μM), the Mean area amounted to 0.131 and the “% increase” value was 66.6%.
